{"source": "patent US9963445B2", "about": "“Chemical compounds” (SYNGENTA PARTICIPATIONS AG, priority 2013, dated 2018)", "format_in_all_cases": "in vivo", "key": {"Setaria faberi [1]": {"tested_on": "Setaria faberi", "experiment": "Post-emergence herbicidal activity, glasshouse pot test", "parameters": "key: 0 = no damage to plant, 5 = total damage to plant", "details": "Application post-emergence, rate 1000 g/ha, evaluated after 13 days", "procedure": "(§1) Seeds of a variety of test species were sown in standard soil in pots. After 8 days cultivation (post-emergence) under controlled conditions in a glasshouse (at 24/16° C., day/night; 14 hours light; 65% humidity), the plants were sprayed with an aqueous spray solution derived from the formulation of the technical active ingredient in acetone/water (50:50) solution containing 0.5% Tween 20 (polyoxyethelyene sorbitan monolaurate, CAS RN 9005-64-5). The test plants were then grown in a glasshouse under controlled conditions (at 24/16° C., day/night; 14 hours light; 65% humidity) and watered twice daily. After 13 days, the test was evaluated (5=total damage to plant; 0=no damage to plant).\n(§2) ABUTH=Abutilon theophrasti; SOLNI=Solanum nigrum; AMARE=Amaranthus retroflexus; SETFA=Setaria faberi; ALOMY=Alopecurus myosuroides; ECHCG=Echinochloa crus-galli, ZEAMX=zea mays."}, "Abutilon theophrasti [2]": {"tested_on": "Abutilon theophrasti", "experiment": "Post-emergence herbicidal activity, glasshouse pot test", "parameters": "key: 0 = no damage to plant, 5 = total damage to plant", "details": "Application post-emergence, rate 1000 g/ha, evaluated after 13 days", "procedure": "as §1, §2"}, "Amaranthus retroflexus [3]": {"tested_on": "Amaranthus retroflexus", "experiment": "Post-emergence herbicidal activity, glasshouse pot test", "parameters": "key: 0 = no damage to plant, 5 = total damage to plant", "details": "Application post-emergence, rate 1000 g/ha, evaluated after 13 days", "procedure": "as §1, §2"}, "Echinochloa crus-galli [4]": {"tested_on": "Echinochloa crus-galli", "experiment": "Post-emergence herbicidal activity, glasshouse pot test", "parameters": "key: 0 = no damage to plant, 5 = total damage to plant", "details": "Application post-emergence, rate 1000 g/ha, evaluated after 13 days", "procedure": "as §1, §2"}, "zea mays [5]": {"tested_on": "zea mays", "experiment": "Post-emergence herbicidal activity, glasshouse pot test", "parameters": "key: 0 = no damage to plant, 5 = total damage to plant", "details": "Application post-emergence, rate 1000 g/ha, evaluated after 13 days", "procedure": "as §1, §2"}, "Alopecurus myosuroides [6]": {"tested_on": "Alopecurus myosuroides", "experiment": "Post-emergence herbicidal activity, glasshouse pot test", "parameters": "key: 0 = no damage to plant, 5 = total damage to plant", "details": "Application post-emergence, rate 1000 g/ha, evaluated after 13 days", "procedure": "as §1, §2"}, "Setaria faberi [7]": {"tested_on": "Setaria faberi", "experiment": "Pre-emergence herbicidal activity, glasshouse pot test", "details": "pre-emergence spray, rate 1000 g/ha, evaluated after 13 days, scale 0-5", "procedure": "as §1, with “After” for “After 8 days”, “for one day (pre-emergence)” for “(post-emergence)”\nas §2"}, "Abutilon theophrasti [8]": {"tested_on": "Abutilon theophrasti", "experiment": "Pre-emergence herbicidal activity, glasshouse pot test", "details": "pre-emergence spray, rate 1000 g/ha, evaluated after 13 days, scale 0-5", "procedure": "as §1, with “After” for “After 8 days”, “for one day (pre-emergence)” for “(post-emergence)”\nas §2"}, "Amaranthus retroflexus [9]": {"tested_on": "Amaranthus retroflexus", "experiment": "Pre-emergence herbicidal activity, glasshouse pot test", "details": "pre-emergence spray, rate 1000 g/ha, evaluated after 13 days, scale 0-5", "procedure": "as §1, with “After” for “After 8 days”, “for one day (pre-emergence)” for “(post-emergence)”\nas §2"}, "Echinochloa crus-galli [10]": {"tested_on": "Echinochloa crus-galli", "experiment": "Pre-emergence herbicidal activity, glasshouse pot test", "details": "pre-emergence spray, rate 1000 g/ha, evaluated after 13 days, scale 0-5", "procedure": "as §1, with “After” for “After 8 days”, “for one day (pre-emergence)” for “(post-emergence)”\nas §2"}, "zea mays [11]": {"tested_on": "zea mays", "experiment": "Pre-emergence herbicidal activity, glasshouse pot test", "details": "pre-emergence spray, rate 1000 g/ha, evaluated after 13 days, scale 0-5", "procedure": "as §1, with “After” for “After 8 days”, “for one day (pre-emergence)” for “(post-emergence)”\nas §2"}, "Alopecurus myosuroides [12]": {"tested_on": "Alopecurus myosuroides", "experiment": "Pre-emergence herbicidal activity, glasshouse pot test", "details": "pre-emergence spray, rate 1000 g/ha, evaluated after 13 days, scale 0-5", "procedure": "as §1, with “After” for “After 8 days”, “for one day (pre-emergence)” for “(post-emergence)”\nas §2"}}}
{"smiles": "COC1=C(C)C(O)N(c2cc(C)c(C(=O)NC3(C#N)CC3)cn2)C1=O", "note": "(stereo not shown) [AI34]", "values": [{"measurement": "SETFA herbicidal damage score", "setting": "Setaria faberi [1]", "result": 5}, {"measurement": "ABUTH herbicidal damage score", "setting": "Abutilon theophrasti [2]", "result": 5}, {"measurement": "AMARE herbicidal damage score", "setting": "Amaranthus retroflexus [3]", "result": 5}, {"measurement": "ECHCG herbicidal damage score", "setting": "Echinochloa crus-galli [4]", "result": 4}, {"measurement": "ZEAMX herbicidal damage score", "setting": "zea mays [5]", "result": 3}, {"measurement": "ALOMY herbicidal damage score", "setting": "Alopecurus myosuroides [6]", "result": 4}, {"measurement": "SETFA damage score, application pre-emergence", "setting": "Setaria faberi [7]", "result": 3}, {"measurement": "ABUTH damage score, application pre-emergence", "setting": "Abutilon theophrasti [8]", "result": 1}, {"measurement": "AMARE damage score, application pre-emergence", "setting": "Amaranthus retroflexus [9]", "result": 4}, {"measurement": "ECHCG damage score, application pre-emergence", "setting": "Echinochloa crus-galli [10]", "result": 4}, {"measurement": "ZEAMX damage score, application pre-emergence", "setting": "zea mays [11]", "result": 0}, {"measurement": "ALOMY damage score, application pre-emergence", "setting": "Alopecurus myosuroides [12]", "result": 3}]}
{"smiles": "CCOC(=O)c1ccc(N2C(=O)C(OC)=C(C)C2O)nn1", "note": "(stereo not shown) [BI4]", "values": [{"measurement": "SETFA herbicidal damage score", "setting": "Setaria faberi [1]", "result": 0}, {"measurement": "ABUTH herbicidal damage score", "setting": "Abutilon theophrasti [2]", "result": 0}, {"measurement": "AMARE herbicidal damage score", "setting": "Amaranthus retroflexus [3]", "result": 0}, {"measurement": "ECHCG herbicidal damage score", "setting": "Echinochloa crus-galli [4]", "result": 0}, {"measurement": "ZEAMX herbicidal damage score", "setting": "zea mays [5]", "result": 0}, {"measurement": "ALOMY herbicidal damage score", "setting": "Alopecurus myosuroides [6]", "result": 0}, {"measurement": "SETFA damage score, application pre-emergence", "setting": "Setaria faberi [7]", "result": 0}, {"measurement": "ABUTH damage score, application pre-emergence", "setting": "Abutilon theophrasti [8]", "result": 0}, {"measurement": "AMARE damage score, application pre-emergence", "setting": "Amaranthus retroflexus [9]", "result": 0}, {"measurement": "ECHCG damage score, application pre-emergence", "setting": "Echinochloa crus-galli [10]", "result": 0}, {"measurement": "ZEAMX damage score, application pre-emergence", "setting": "zea mays [11]", "result": 0}, {"measurement": "ALOMY damage score, application pre-emergence", "setting": "Alopecurus myosuroides [12]", "result": 0}]}
{"smiles": "CC1=C(Cl)C(=O)N(c2cc(C(C)(C)C#N)ccn2)C1O", "note": "(stereo not shown) [AF100]", "values": [{"measurement": "SETFA herbicidal damage score", "setting": "Setaria faberi [1]", "result": 5}, {"measurement": "ABUTH herbicidal damage score", "setting": "Abutilon theophrasti [2]", "result": 5}, {"measurement": "AMARE herbicidal damage score", "setting": "Amaranthus retroflexus [3]", "result": 5}, {"measurement": "ECHCG herbicidal damage score", "setting": "Echinochloa crus-galli [4]", "result": 5}, {"measurement": "ZEAMX herbicidal damage score", "setting": "zea mays [5]", "result": 4}, {"measurement": "ALOMY herbicidal damage score", "setting": "Alopecurus myosuroides [6]", "result": 5}, {"measurement": "SETFA damage score, application pre-emergence", "setting": "Setaria faberi [7]", "result": 5}, {"measurement": "ABUTH damage score, application pre-emergence", "setting": "Abutilon theophrasti [8]", "result": 3}, {"measurement": "AMARE damage score, application pre-emergence", "setting": "Amaranthus retroflexus [9]", "result": 5}, {"measurement": "ECHCG damage score, application pre-emergence", "setting": "Echinochloa crus-galli [10]", "result": 5}, {"measurement": "ZEAMX damage score, application pre-emergence", "setting": "zea mays [11]", "result": 3}, {"measurement": "ALOMY damage score, application pre-emergence", "setting": "Alopecurus myosuroides [12]", "result": 4}]}
{"smiles": "CC1=C(Cl)C(=O)N(c2cc(C(F)(F)F)c(Br)cn2)C1O", "note": "(stereo not shown) [AF57, 1-[5-bromo-4-(trifluoromethyl)-2-pyridyl]-4-chloro-2-hydroxy-3-methyl-2H-pyrrol-5-one]", "values": [{"measurement": "SETFA herbicidal damage score", "setting": "Setaria faberi [1]", "result": 5}, {"measurement": "ABUTH herbicidal damage score", "setting": "Abutilon theophrasti [2]", "result": 5}, {"measurement": "AMARE herbicidal damage score", "setting": "Amaranthus retroflexus [3]", "result": 5}, {"measurement": "ECHCG herbicidal damage score", "setting": "Echinochloa crus-galli [4]", "result": 5}, {"measurement": "ZEAMX herbicidal damage score", "setting": "zea mays [5]", "result": 3}, {"measurement": "ALOMY herbicidal damage score", "setting": "Alopecurus myosuroides [6]", "result": 5}, {"measurement": "SETFA damage score, application pre-emergence", "setting": "Setaria faberi [7]", "result": 0}, {"measurement": "ABUTH damage score, application pre-emergence", "setting": "Abutilon theophrasti [8]", "result": 1}, {"measurement": "ECHCG damage score, application pre-emergence", "setting": "Echinochloa crus-galli [10]", "result": 0}, {"measurement": "ZEAMX damage score, application pre-emergence", "setting": "zea mays [11]", "result": 0}, {"measurement": "ALOMY damage score, application pre-emergence", "setting": "Alopecurus myosuroides [12]", "result": 3}]}
{"smiles": "CC1=C(Cl)C(=O)N(c2cc(Cl)ncn2)C1O", "note": "(stereo not shown) [CF1]", "values": [{"measurement": "SETFA herbicidal damage score", "setting": "Setaria faberi [1]", "result": 1}, {"measurement": "ABUTH herbicidal damage score", "setting": "Abutilon theophrasti [2]", "result": 0}, {"measurement": "ECHCG herbicidal damage score", "setting": "Echinochloa crus-galli [4]", "result": 4}, {"measurement": "ZEAMX herbicidal damage score", "setting": "zea mays [5]", "result": 1}, {"measurement": "ALOMY herbicidal damage score", "setting": "Alopecurus myosuroides [6]", "result": 4}, {"measurement": "SETFA damage score, application pre-emergence", "setting": "Setaria faberi [7]", "result": 0}, {"measurement": "ABUTH damage score, application pre-emergence", "setting": "Abutilon theophrasti [8]", "result": 1}, {"measurement": "AMARE damage score, application pre-emergence", "setting": "Amaranthus retroflexus [9]", "result": 5}, {"measurement": "ECHCG damage score, application pre-emergence", "setting": "Echinochloa crus-galli [10]", "result": 4}, {"measurement": "ZEAMX damage score, application pre-emergence", "setting": "zea mays [11]", "result": 2}, {"measurement": "ALOMY damage score, application pre-emergence", "setting": "Alopecurus myosuroides [12]", "result": 3}]}
